Laboratory results as given in patent US20090062253A1, “HETEROCYCLODIAZEPINE CANNABINOID RECEPTOR MODULATORS FOR TREATMENT OF DISEASE” (KALYPSYS, INC., priority 2007, published 2009).

Tests used:
[1] = target: T1, human cannabinoid receptor type 1 (Homo sapiens, UniProt P21554); assay: Human CB1 Radioligand Binding Assay (basis of selectivity CB2 vs. CB1)
T1 construct: purchased Perkin Elmer RBHCB1M; host or cells: HEK 293 EBNA cells
In short: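 Filtration competition binding against [3H] CP-55,940 at its Kd, using membranes from HEK 293 EBNA cells expressing human CB1; 90 minutes at 30° C in 50 mM Tris-HCl pH 7.4, 2.5 mM EDTA, 5 mM MgCl2, 5.0 mg/ml BSA, 1% DMSO. Single point 10 uM or dose-response; 100 nM CP-55,940 defined 100% efficacy.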

[2] = target: T2, Human CB2 (Homo sapiens, UniProt P34972); assay: Human CB2 Radioligand Binding Assay; conditions: membranes from stably transfected CHO CB2 cells; competition with [3H] CP-55,940; read-out: CB2 Ligand Binding Asssay
T2 construct: expressed in transfected cells; membrane preparation
T2 sequence (P34972 whole entry): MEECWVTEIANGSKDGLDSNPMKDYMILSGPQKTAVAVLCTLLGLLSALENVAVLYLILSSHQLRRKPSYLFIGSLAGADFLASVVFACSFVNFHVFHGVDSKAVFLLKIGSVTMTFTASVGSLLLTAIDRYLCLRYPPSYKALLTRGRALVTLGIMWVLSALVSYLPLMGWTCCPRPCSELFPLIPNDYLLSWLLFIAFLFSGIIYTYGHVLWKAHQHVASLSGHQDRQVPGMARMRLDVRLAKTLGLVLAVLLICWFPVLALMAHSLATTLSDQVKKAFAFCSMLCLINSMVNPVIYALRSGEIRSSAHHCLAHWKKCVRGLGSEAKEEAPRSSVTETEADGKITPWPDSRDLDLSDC
In short: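 Filtration competition against [3H]CP-55,940 at its Kd on membranes from CHO cells stably expressing human CB2; compounds at 10 uM single point or dose-response, 1% DMSO. Buffer 50 mM Tris-HCl pH 7.4, EGTA, MgCl2, 5.0 mg/ml BSA; 90 min at 30° C, scintillation read; 100 nM CP-55,940 = 100%.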

T1 sequence (P21554 whole entry): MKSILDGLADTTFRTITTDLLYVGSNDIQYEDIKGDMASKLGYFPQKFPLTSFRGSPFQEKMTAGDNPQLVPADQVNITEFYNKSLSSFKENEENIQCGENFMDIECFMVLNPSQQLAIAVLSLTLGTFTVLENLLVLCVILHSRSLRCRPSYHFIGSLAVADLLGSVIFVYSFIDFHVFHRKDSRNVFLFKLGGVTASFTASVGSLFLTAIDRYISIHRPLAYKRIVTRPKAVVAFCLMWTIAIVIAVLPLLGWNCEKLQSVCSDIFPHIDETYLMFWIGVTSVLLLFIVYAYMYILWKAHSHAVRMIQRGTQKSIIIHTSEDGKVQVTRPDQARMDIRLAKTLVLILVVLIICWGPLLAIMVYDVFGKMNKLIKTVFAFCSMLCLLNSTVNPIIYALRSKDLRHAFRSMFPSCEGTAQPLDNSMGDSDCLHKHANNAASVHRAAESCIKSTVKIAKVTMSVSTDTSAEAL

Selectivity, CB2 vs. CB1 [1]	IC50 (radioligand displacement) [2] [nM]	Compound
+ (+ indicates > 10-fold)	< 1000	CC(C)(C)c1ccc(C2c3cccn3CCCC2C(=O)Nc2ccc(F)c(F)c2)cc1 (stereo not shown) [Example 91, 9-(4-tert-Butylphenyl)-N-(3,4-difluorophenyl)-6,7,8,9-tetrahydro-5H-pyrrolo[1,2-a]azepine-8-carboxamide]
+ (+ indicates > 10-fold)	< 1000	CC(C)(C)c1ccc(C2c3cccn3CCCC2C(=O)Nc2ccc(Cl)cc2)cc1 (stereo not shown) [Example 92, 9-(4-tert-Butylphenyl)-N-(4-chlorophenyl)-6,7,8,9-tetrahydro-5H-pyrrolo[1,2-a]azepine-8-carboxamide]
− (− indicates < 10-fold)	< 1000	CC(C)(C)c1ccc(C2c3cccn3CCCC2C(=O)Nc2ccc(C(F)(F)F)cc2)cc1 (stereo not shown) [Example 93, 9-(4-tert-Butylphenyl)-N-(4-(trifluoromethyl)phenyl)-6,7,8,9-tetrahydro-5H-pyrrolo[1,2-a]azepine-8-carboxamide]
− (− indicates < 10-fold)	< 1000	CC(C)(C)c1ccc(C2c3cccn3CCCC2C(=O)Nc2ccc(OC(F)(F)F)cc2)cc1 (stereo not shown) [Example 94, 9-(4-tert-Butylphenyl)-N-(4-(trifluoromethoxy)phenyl)-6,7,8,9-tetrahydro-5H-pyrrolo[1,2-a]azepine-8-carboxamide]
− (− indicates < 10-fold)	> 1000	CC(C)(C)c1ccc(C2c3cccn3CCC2C(=O)Nc2ccc(C(F)(F)F)cc2)cc1 (stereo not shown) [Example 96, 8-(4-tert-Butylphenyl)-N-(4-(trifluoromethyl)phenyl)-5,6,7,8-tetrahydroindolizine-7-carboxamide]
− (− indicates < 10-fold)	> 1000	CC(C)(C)c1ccc(C2c3cccn3CCC2C(=O)Nc2ccc(OC(F)(F)F)cc2)cc1 (stereo not shown) [Example 97, 8-(4-tert-Butylphenyl)-N-(4-(trifluoromethoxy)phenyl)-5,6,7,8-tetrahydroindolizine-7-carboxamide]
+ (+ indicates > 10-fold)	< 1000	CC(C)(C)c1ccc(C2[C@@H]3CCCN3CCCN2C(=O)Nc2ccc(F)cc2F)cc1 (stereo partly drawn) [Example 129, (9aS)-1-(4-tert-Butylphenyl)-N-(2,4-difluorophenyl)hexahydro-1H-pyrrolo[1,2-a][1,4]diazepine-2(3H)-carboxamide]
+ (+ indicates > 10-fold)	< 1000	CC(C)(C)c1ccc(C2[C@@H]3CCCN3CCCN2C(=O)Nc2ccc(F)c(F)c2)cc1 (stereo partly drawn) [Example 130, (9aS)-1-(4-tert-Butylphenyl)-N-(3,4-difluorophenyl)hexahydro-1H-pyrrolo[1,2-a][1,4]diazepine-2(3H)-carboxamide]
+ (+ indicates > 10-fold)	< 1000	CC(C)(C)c1ccc(C2[C@@H]3CCCN3CCCN2C(=O)Nc2ccc(Cl)cc2)cc1 (stereo partly drawn) [Example 131, (9aS)-1-(4-tert-Butylphenyl)-N-(4-chlorophenyl)hexahydro-1H-pyrrolo[1,2-a][1,4]diazepine-2(3H)-carboxamide]
− (− indicates < 10-fold)	< 1000	CC(C)(C)c1ccc(C2=C(C(=O)Nc3ccc(C(F)(F)F)cc3)CCn3cccc32)cc1 [Example 132, 8-(4-tert-Butylphenyl)-N-(4-(trifluoromethyl)phenyl)-5,6-dihydroindolizine-7-carboxamide]
+ (+ indicates > 10-fold)	< 1000	CC(C)(C)c1ccc(C2c3cccnc3CCCN2C(=O)Nc2ccc(F)cc2F)cc1 (stereo not shown) [Example 134, 5-(4-tert-Butylphenyl)-N-(2,4-difluorophenyl)-8,9-dihydro-5H-pyrido[3,2-c]azepine-6(7H)-carboxamide]
